# Test results: paper PMC9146698, “Mammalian Brain Ca^2+ Channel Activity Transplanted into Xenopus laevis Oocytes” (Membranes, 2022)
# Test system: T1, GABA receptor
# T1 construct: gene Gabra1
# Test: two-electrode voltage clamp, membrane-transplanted oocytes
# Assay type: cell-based, Mus musculus
# Settings: block of GABA-induced Cl- current; n = 5; data not shown
compound,measurement,value
CN1CCc2cc3c(cc2[C@H]1[C@@H]1OC(=O)c2c1ccc1c2OCO1)OCO3 [biccuculine],% block at 100 μM,87 ± 2%
